Results: patent US20220119354A1, “DIAMINO-SUBSTITUTED PYRIDINES AND PYRIMIDINES AS HERBICIDES” (FMC Corporation, priority 2019, published 2022)

What was measured:
Format in all cases: in vivo
kochia (Kochia scoparia) [1] = experiment: Test A postemergence, kochia; conditions: 0 to 100 scale
In short: (§1)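 Visual injury scores (0 no effect to 100 complete control) were assigned about 10 d after treatment by comparison with untreated controls. Test chemicals, formulated in a surfactant-containing non-phytotoxic solvent, were applied to soil at planting or to plants at the one- to two-leaf stage.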

[2] = system: barnyardgrass (Echinochloa crus-galli); experiment: Test A postemergence, barnyardgrass; conditions: 0 to 100 scale
In short: as §1

kochia (Kochia scoparia) [3] = experiment: Test A preemergence, kochia; conditions: 0 to 100 scale; for Kochia plant response rating: 0 is no effect, 100 is complete control
In short: as §1

[4] = system: foxtail, giant (Setaria faberii); experiment: Test A postemergence, giant foxtail; conditions: 0 to 100 scale
In short: as §1

[5] = system: wheat (Triticum aestivum); experiment: Test A postemergence, wheat; conditions: 0 to 100 scale
In short: as §1

[6] = system: pigweed (Amaranthus retroflexus); experiment: Test A postemergence, pigweed; conditions: 0 to 100 scale
In short: as §1

rice (Oryza sativa) = experiment: Test B flooded paddy test, rice; conditions: Flood, 250 g ai/ha, applied to paddy water, 2-leaf stage, visual evaluation after 13 to 15 d
In short: (§2)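 Application was made into paddy water of pots flooded 3 cm deep at treatment, with seedlings at the 2-leaf stage. That flood level was kept throughout, and plants stayed under glass 13 to 15 d before visual assessment on a 0–100 control scale.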

[7] = system: ducksalad (Heteranthera limosa); experiment: Test B flooded paddy test, ducksalad; conditions: Flood, 250 g ai/ha, applied to paddy water, 2-leaf stage, visual evaluation after 13 to 15 d
In short: as §2

[8] = system: ragweed (common ragweed, Ambrosia elatior); experiment: Test A postemergence, ragweed; conditions: 0 to 100 scale
In short: as §1

[9] = system: barnyardgrass (Echinochloa crus-galli); experiment: Test A preemergence, barnyardgrass; conditions: 0 to 100 scale; for Barnyardgrass plant response rating: 0 is no effect, 100 is complete control
In short: as §1

[10] = system: blackgrass (Alopecurus myosuroides); experiment: Test A postemergence, blackgrass; conditions: 0 to 100 scale
In short: as §1

[11] = system: ragweed (common ragweed, Ambrosia elatior); experiment: Test A preemergence, ragweed; conditions: 0 to 100 scale; for Ragweed plant response rating: 0 is no effect, 100 is complete control
In short: as §1

[12] = system: sedge, umbrella (small-flower umbrella sedge, Cyperus difformis); experiment: Test B flooded paddy test, umbrella sedge; conditions: Flood, 250 g ai/ha, applied to paddy water, 2-leaf stage, visual evaluation after 13 to 15 d
In short: as §2

[13] = system: pigweed (Amaranthus retroflexus); experiment: Test A preemergence, pigweed; conditions: 0 to 100 scale; for Pigweed plant response rating: 0 is no effect, 100 is complete control
In short: as §1

[14] = system: galium (catchweed bedstraw, Galium aparine); experiment: Test A postemergence, galium; conditions: 0 to 100 scale
In short: as §1

[15] = system: ryegrass, Italian (Lolium multiflorum); experiment: Test A postemergence, Italian ryegrass; conditions: 0 to 100 scale
In short: as §1

[16] = system: barnyardgrass (Echinochloa crus-galli); experiment: Test B flooded paddy test, barnyardgrass; conditions: Flood, 250 g ai/ha, applied to paddy water, 2-leaf stage, visual evaluation after 13 to 15 d
In short: as §2

corn (Zea mays) = experiment: Test A postemergence, corn; conditions: 0 to 100 scale
In short: as §1

[17] = system: foxtail, giant (Setaria faberii); experiment: Test A preemergence, giant foxtail; conditions: 0 to 100 scale; for Foxtail, Giant plant response rating: 0 is no effect, 100 is complete control
In short: as §1

[18] = system: ryegrass, Italian (Lolium multiflorum); experiment: Test A preemergence, Italian ryegrass; conditions: 0 to 100 scale; for Ryegrass, Italian plant response rating: 0 is no effect, 100 is complete control
In short: as §1

[19] = 125 g ai/ha, 0 no effect, 100 complete control
[20] = 500 g ai/ha, 0 no effect, 100 complete control

SMILES: C[C@H](Nc1nc(N)c(C(F)(F)F)c(C(F)(F)F)n1)c1cc2ccccc2s1 [Compound 60]
- Plant response rating, Kochia (kochia (Kochia scoparia) [1]; [19]): 30
- Plant response rating, Kochia (kochia (Kochia scoparia) [1]; [20]): 100
- Plant response rating, Barnyardgrass [2, 19]: 0
- Plant response rating, Barnyardgrass [2, 20]: 50
- Kochia plant response rating (kochia (Kochia scoparia) [3]; 125 g ai/ha): 0
- Kochia plant response rating (kochia (Kochia scoparia) [3]; 500 g ai/ha): 0
- Plant response rating, Foxtail, Giant [4, 19]: 20
- Plant response rating, Foxtail, Giant [4, 20]: 50
- Plant response rating, Wheat [5, 19]: 0
- Plant response rating, Wheat [5, 20]: 0
- Plant response rating, Pigweed [6, 19]: 50
- Plant response rating, Pigweed [6, 20]: 90
- Plant response rating, Rice (0 to 100 scale, 0 is no effect, 100 is complete control) (rice (Oryza sativa)): 0
- Plant response rating, Ducksalad (0 to 100 scale, 0 is no effect, 100 is complete control) [7]: 0
- Plant response rating, Ragweed [8, 19]: 20
- Plant response rating, Ragweed [8, 20]: 60
- Barnyardgrass plant response rating ([9]; 125 g ai/ha): 0
- Barnyardgrass plant response rating ([9]; 500 g ai/ha): 50
- Plant response rating, Blackgrass [10, 19]: 0
- Plant response rating, Blackgrass [10, 20]: 20
- Ragweed plant response rating ([11]; 125 g ai/ha): 0
- Ragweed plant response rating ([11]; 500 g ai/ha): 0
- Plant response rating, Sedge, Umbrella (0 to 100 scale, 0 is no effect, 100 is complete control) [12]: 0
- Pigweed plant response rating ([13]; 125 g ai/ha): 0
- Pigweed plant response rating ([13]; 500 g ai/ha): 0
- Plant response rating, Galium [14, 19]: 30
- Plant response rating, Galium [14, 20]: 40
- Plant response rating, Ryegrass, Italian [15, 19]: 0
- Plant response rating, Ryegrass, Italian [15, 20]: 0
- Plant response rating, Barnyardgrass (0 to 100 scale, 0 is no effect, 100 is complete control) [16]: 0
- Plant response rating, Corn (corn (Zea mays); [19]): 0
- Plant response rating, Corn (corn (Zea mays); [20]): 0
- Foxtail, Giant plant response rating ([17]; 125 g ai/ha): 0
- Foxtail, Giant plant response rating ([17]; 500 g ai/ha): 0
- Ryegrass, Italian plant response rating ([18]; 125 g ai/ha): 0
- Ryegrass, Italian plant response rating ([18]; 500 g ai/ha): 20

SMILES: CC(COc1cccc(F)c1)Nc1ncc(C(F)(F)F)c(N)n1 (stereo not drawn) [Compound 37]
- Plant response rating, Kochia (kochia (Kochia scoparia) [1]; 125 g ai/ha): 0
- Plant response rating, Kochia (kochia (Kochia scoparia) [1]; 500 g ai/ha): 0
- Plant response rating, Barnyardgrass ([2]; 125 g ai/ha): 0
- Plant response rating, Barnyardgrass ([2]; 500 g ai/ha): 0
- Kochia plant response rating (kochia (Kochia scoparia) [3]; 125 g ai/ha): 0
- Plant response rating, Kochia (kochia (Kochia scoparia) [3]; 500 g ai/ha): 0
- Plant response rating, Foxtail, Giant ([4]; 125 g ai/ha): 0
- Plant response rating, Foxtail, Giant ([4]; 500 g ai/ha): 0
- Plant response rating, Wheat ([5]; 125 g ai/ha): 0
- Plant response rating, Wheat ([5]; 500 g ai/ha): 0
- Plant response rating, Pigweed ([6]; 125 g ai/ha): 0
- Plant response rating, Pigweed ([6]; 500 g ai/ha): 40
- Plant response rating, Rice (0 to 100 scale, 0 is no effect, 100 is complete control) (rice (Oryza sativa)): 0
- Plant response rating, Ducksalad (0 to 100 scale, 0 is no effect, 100 is complete control) [7]: 0
- Plant response rating, Ragweed ([8]; 125 g ai/ha): 0
- Plant response rating, Ragweed ([8]; 500 g ai/ha): 0
- Barnyardgrass plant response rating ([9]; 125 g ai/ha): 0
- Plant response rating, Barnyardgrass ([9]; 500 g ai/ha): 0
- Plant response rating, Blackgrass ([10]; 125 g ai/ha): 0
- Plant response rating, Blackgrass ([10]; 500 g ai/ha): 0
- Ragweed plant response rating ([11]; 125 g ai/ha): 0
- Plant response rating, Ragweed ([11]; 500 g ai/ha): 100
- Plant response rating, Sedge, Umbrella (0 to 100 scale, 0 is no effect, 100 is complete control) [12]: 0
- Pigweed plant response rating ([13]; 125 g ai/ha): 50
- Plant response rating, Pigweed ([13]; 500 g ai/ha): 70
- Plant response rating, Galium ([14]; 125 g ai/ha): 20
- Plant response rating, Galium ([14]; 500 g ai/ha): 40
- Plant response rating, Ryegrass, Italian ([15]; 125 g ai/ha): 0
- Plant response rating, Ryegrass, Italian ([15]; 500 g ai/ha): 0
- Plant response rating, Barnyardgrass (0 to 100 scale, 0 is no effect, 100 is complete control) [16]: 0
- Plant response rating, Corn (corn (Zea mays); 125 g ai/ha): 0
- Plant response rating, Corn (corn (Zea mays); 500 g ai/ha): 0
- Foxtail, Giant plant response rating ([17]; 125 g ai/ha): 0
- Plant response rating, Foxtail, Giant ([17]; 500 g ai/ha): 0
- Ryegrass, Italian plant response rating ([18]; 125 g ai/ha): 0
- Plant response rating, Ryegrass, Italian ([18]; 500 g ai/ha): 0
